Calls of active or inactive are those of the source.
Experiments:
[1] = tested on: Mycoplasmoides pneumoniae; assay: Antimicrobial activity against wild-type Mycoplasma pneumoniae at 1 to 3 ug/ml; assay type: functional, organism-based
Mycoplasma capricolum [2] = assay: Antimicrobial activity against wild-type Mycoplasma capricolum at 3.7 ug/ml; assay type: functional
Mycoplasma genitalium = assay: Antimicrobial activity against wild-type Mycoplasma genitalium at 1 to 3 ug/ml; assay type: functional; conditions: Mycoplasmoides genitalium
[3] = tested on: Mycoplasmoides gallisepticum; assay: Antimicrobial activity against wild-type Mycoplasma gallisepticum at 1 to 3 ug/ml; assay type: functional, organism-based
Mycoplasma mycoides = assay: Antimicrobial activity against wild-type Mycoplasma mycoides at 1 to 3 ug/ml; assay type: functional
Escherichia coli = assay: Antimicrobial activity against Escherichia coli at 10 to 50 ug/ml; assay type: functional, organism-based
Mycoplasma capricolum [4] = assay: Antimicrobial activity against wild-type Mycoplasma capricolum at 1 to 3 ug/ml; assay type: functional

Measured: Activity

COc1ccc(C[C@H](N)C(=O)N[C@H]2[C@@H](O)[C@H](n3cnc4c(N(C)C)ncnc43)O[C@@H]2CO)cc1
active: all assays above
